The values below come from publication PMC10485906, “Development of a Dihydroquinoline–Pyrazoline GluN2C/2D-Selective Negative Allosteric Modulator of the N-Methyl-D-aspartate Receptor” (ACS Chemical Neuroscience, 2023).

The structures appear in SMILES notation. pIC50, pKd: −log10 of the molar value. Where two headings read alike, the source gives them in different places.

Assay [1] addresses GluN1/GluN2C (Rattus norvegicus, UniProt P35439+Q00961). In words: Whole-cell voltage-clamp recordings, HEK cells, GluN1/GluN2C (agonist dependence). Type of assay: cell-based. The conditions noted are these: for pIC50: inhibitor and glycine preapplied. On the procedure:
(§1) We also evaluated the mechanism of inhibition of GluN1/GluN2C expressed in HEK cells preincubated with glycine for inhibitor 2i (DQP-997-74) by comparing inhibitor potency during the peak and steady-state current responses to glutamate application. […] The deactivation of GluN1/GluN2C receptors (0.53 ± 0.07 s) was slowed by the presence of compound 2i when applied at concentrations of 1 μM (1.3 ± 0.14 s; p = 0.001) and 3 μM (2.3 ± 0.40 s; p < 0.0001) but not at 0.1 μM (0.61 ± 0.07 s; p = 0.965) and 0.3 μM (0.88 ± 0.13 s; p = 0.115; Figure S2).
(§2) HEK293 cells (HEK, ATCC CRL-1573) were plated on glass coverslips pretreated with 0.1 mg/mL poly-D-lysine and cultured in Dulbecco’s modified Eagle medium (DMEM) plus Glutamax (GIBCO 10569-10) supplemented with 10% fetal bovine serum, 10 U/mL of penicillin, and 10 μg/mL of streptomycin at 37 °C and 5% CO2. The cells were transiently transfected with cDNA encoding rat GluN1, GluN2D, and eGFP at a ratio of 1:1:5 by using the calcium phosphate precipitation method.[48] After 24–48 h following the transfection, the cells were perfused with external recording solution that contained (in mM) 3 KCl, 150 NaCl, 0.01 EDTA, 1.0 CaCl2, 10 HEPES, and 22 D-mannitol (the pH was adjusted to 7.4 with NaOH). The patch electrodes (resistance 3–5 MΩ) were prepared from thin-walled glass micropipettes (TW150F-4, World Precision Instruments, Sarasota, FL) by a dual-stage glass micropipette puller (PC-10, Narishige, Tokyo, Japan) and filled with internal solution containing (in mM) 110 D-gluconate, 110 CsOH, 30 CsCl, 5 HEPES, 4 NaCl, 0.5 CaCl2, 2 MgCl2, 5 BAPTA, 2 NaATP, and 0.3 NaGTP. The pH was adjusted to 7.4 with CsOH; osmolality was adjusted to about 300–305 mOsmol/kg. The whole-cell current responses were evoked by application of maximally effectively concentrations of agonists (100 μM glutamate and 30 μM glycine) at a holding potential of −60 mV and recorded using an Axopatch 200B patch-clamp amplifier (Molecular Devices, Union City, CA). A two-barreled theta-glass micropipette was used for rapid solution exchange controlled by a piezoelectric translator (Burleigh Instruments, Newton, NJ). For some experiments, 500 μM NMDA and 250 μM glycine were briefly applied by pressure application from a patch pipette (tip 3–5 MΩ). The current responses were low pass filtered at 2 kHz 8-pole Bessel filter (−3 dB; Frequency Devices) and digitized at 20 kHz using Digidata 1440A acquisition system (Molecular Devices) controlled by Clampex 10.3 (Molecular Devices). All patch experiments were performed at room temperature (23 °C).
(§3) Confidence intervals were determined for the log(IC50). The time course of relaxation during inhibitor application or deactivation following rapid removal of NMDA or glutamate was fitted by the equation [drawing 5] 2 […]
(§4) μM), which is consistent with increased inhibitor potency late in the stimulus train after agonist is bound. […]
(§5) inhibition of recombinant GluN1/GluN2C receptors expressed in HEK cells. GluN1/GluN2C current responses were recorded to glutamate with pre-applied glycine and compound 2i or control (pre-applied glycine and vehicle, 0.1% DMSO; see Figure S2A). The concentration-response curves show peak and steady-state responses normalized to control (Figure S2B). A linear relationship exists between 1/τinhibition and compound 2i concentration from which kON and kOFF can be calculated (see Results, Figure S2C). The deactivation time course following rapid glutamate removal was expanded to show the slowing of receptor deactivation (τdeactivation) by compound 2i (Figure S2D). τdeactivation for individual cells as well as the mean ± SEM are plotted and data were compared by mixed effects model (F (4, 17) = 22.60, p<0.0001; asterisks indicate statistically significant differences, see Results for p -values).
(§6) 2013) and the whole cell current recordings from HEK cells of GluN1/GluN2D responses to glutamate with pre-applied (S)-2a or vehicle (0.1% DMSO). The IC50 for (S)-2a 33 (Figure S3) was 4-fold higher […]

Assay [2] has as its target GluN1/GluN2C (Rattus norvegicus, UniProt Q00961). Described as above. Type of assay: cell-based. On the procedure: as §1, §2, §3, §4, §5, §6
The mark [3] stands for this setting: HEK293, linear regression of 1/τinhibition vs concentration.

GluN1/GluN2C (Rattus norvegicus, UniProt P35439+Q00961), sequence (Q00961 20-1237, other chains not shown): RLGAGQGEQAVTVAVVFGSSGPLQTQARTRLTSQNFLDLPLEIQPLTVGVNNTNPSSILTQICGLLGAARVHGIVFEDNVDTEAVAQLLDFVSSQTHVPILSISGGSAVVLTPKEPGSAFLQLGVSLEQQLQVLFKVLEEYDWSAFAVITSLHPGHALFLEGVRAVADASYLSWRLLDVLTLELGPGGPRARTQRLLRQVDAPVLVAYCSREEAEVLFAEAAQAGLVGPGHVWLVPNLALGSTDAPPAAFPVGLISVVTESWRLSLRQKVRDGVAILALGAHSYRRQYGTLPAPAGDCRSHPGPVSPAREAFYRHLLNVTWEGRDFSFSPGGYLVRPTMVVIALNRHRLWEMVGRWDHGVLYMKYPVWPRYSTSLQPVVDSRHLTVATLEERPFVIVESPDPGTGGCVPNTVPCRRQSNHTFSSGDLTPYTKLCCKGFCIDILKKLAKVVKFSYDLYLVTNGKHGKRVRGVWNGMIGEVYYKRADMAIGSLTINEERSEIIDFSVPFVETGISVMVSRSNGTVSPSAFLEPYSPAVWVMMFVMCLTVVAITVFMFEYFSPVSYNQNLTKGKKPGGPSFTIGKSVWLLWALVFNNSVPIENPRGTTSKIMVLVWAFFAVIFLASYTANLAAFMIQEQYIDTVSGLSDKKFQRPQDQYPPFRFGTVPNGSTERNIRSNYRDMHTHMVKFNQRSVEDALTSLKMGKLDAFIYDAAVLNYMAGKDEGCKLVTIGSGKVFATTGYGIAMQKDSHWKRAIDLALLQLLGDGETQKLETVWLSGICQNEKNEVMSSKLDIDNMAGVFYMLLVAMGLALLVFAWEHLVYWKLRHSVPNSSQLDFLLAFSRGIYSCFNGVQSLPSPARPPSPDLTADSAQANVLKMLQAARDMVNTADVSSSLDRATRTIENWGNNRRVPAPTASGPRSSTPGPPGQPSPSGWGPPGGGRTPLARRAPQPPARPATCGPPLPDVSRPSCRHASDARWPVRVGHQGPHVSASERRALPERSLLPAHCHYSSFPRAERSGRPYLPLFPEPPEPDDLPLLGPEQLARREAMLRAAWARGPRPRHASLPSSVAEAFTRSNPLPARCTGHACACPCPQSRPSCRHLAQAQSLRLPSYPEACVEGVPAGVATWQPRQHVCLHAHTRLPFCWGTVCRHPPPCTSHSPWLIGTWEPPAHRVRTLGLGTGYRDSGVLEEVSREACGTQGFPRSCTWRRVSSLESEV
GluN1/GluN2C (Rattus norvegicus, UniProt Q00961), sequence (Q00961 20-1237, other chains not shown): as above

Broadly, the koff is the rate constant with which the complex falls apart. By kon is commonly meant the second-order rate constant of association. Higher therefore signals faster complex formation. The pKd is the negative decadic logarithm of the Kd, by convention in mol/L. Read a low pKd as a high Kd. Usually pIC50 stands for the negative decadic logarithm of the IC50, by convention in mol/L. `O=C(O)CC(F)(F)C(=O)N1N=C(c2c(-c3ccc(Cl)cc3)c3ccccc3[nH]c2=O)CC1c1ccc(Cl)cc1` (stereo not drawn) [2i] returned a koff at GluN1/GluN2C [1] (setting [3]) of 0.27 s⁻¹. For the same molecule, the kon on GluN1/GluN2C [1] (setting [3]) came to 800000 M⁻¹ s⁻¹. Besides, the pKd on GluN1/GluN2C [1] (from kON and kOFF) was 6.48. Besides, the pIC50 at GluN1/GluN2C [1] (read-out: IC50 peak current responses) was 5.30; at GluN1/GluN2C [1] (read-out: IC50 steady-state responses) it was 6.60. Moreover, the “deactivation of GluN1/GluN2C receptors” value is recorded as 0.61 ± 0.07 s at GluN1/GluN2C [2] (0.1 μM compound), 0.88 ± 0.13 s on GluN1/GluN2C [2] (0.3 μM compound), 1.3 ± 0.14 s at GluN1/GluN2C [2] (1 μM compound) and 2.3 ± 0.40 s at GluN1/GluN2C [2] (3 μM compound).
